Test system: SH-Ratte
Assay: Blood pressure measurement in conscious rats (tail cuff, oral administration)
Assay type: in vivo
Conditions: Rattus norvegicus, oral by gavage, lowest dose that still gives at least 15 mm Hg fall in systolic blood pressure, read-out: Grenzdosis der antihypertensiven Wirkung
Procedure: Blutdruckmessung bei wachen Ratten
Meßmethode: In Anlehnung an das von Breuninger beschriebene Verfahren wird der Blutdruck am Schwanz der nicht narkotisierten Ratte unblutig mittels aufblasbarer Gummimanschette und Infraton-Pulsabnehmer D nach Boucke-Brecht gemessen. Die Tiere befinden sich während des ganzen Versuches, einschlieBlich einer 2-stündigen Vorperiode, einzeln in einem Wassermantel umgeben, auf ca. 30°C temperierten Kunststoffröhren. Die aufblasbare Gummimanschette sitzt an der Schwanzwurzel, der Pulsabnehmer 2-5 cm distal davon. Zur Erzielung gleichmäßiger Meßresultate ist für die wiederholten Messungen die Meßstelle am Schwanz mit Tusche markiert.
Der gesamte Meßvorgang wird auf einem 2-Kanal-Direktschreiber oder einem Speicher-Oszillografen (Tektronix) registriert, im 1. Kanal die Pulsationen der Schwanzarterie, im 2. Kanal die Impulse eines Druckmarkengebers, der den jeweils in der Manschette herrschenden Druck anzeigt. Gemessen wird bei abfallendem Manschettendruck. Als Meßwert wird der in der Manschette herrschende Druck bei Wiederauftreten der Pulsationen benutzt. Er entspricht dem systolischen Blutdruck im Rattenschwanz. […]
Bei der quantitativen Bestimmung von Dosis-Wirkungskurven wird für jedes Tier die Wirkung als mittlere prozentuale Blutdrucksenkung gegenüber dem Ausgangsblutdruck, gemittelt über den Versuchszeitraum von 6 Stunden, angegeben. […]

## COC(=O)C1=C(C)NC(C)=C(C(=O)OCC(C)(C)O)C1c1ccccc1[N+](=O)[O-] (stereo not shown) [Beispiel 3, 1,4-Dihydro-2,6-dimethyl-4-(2-nitrophenyl)-pyridin-3,5-dicarbonsäure-(2-hydroxy-2-methyl-propyl)-methyl-ester]
  minimal effective dose: 1 mg/kg

Reference: EP0199238A1, “1,4-Dihydropyridine derivatives, process for their preparation and their use in medicaments” (BAYER AG, priority 1985, dated 1986)
